Measured values reported in the NIST ThermoML archive (doi:10.1021/je050273f).
Numbers after ± are expanded uncertainties.

Test: molar heat capacity at saturation pressure
Settings: Liquid, Large sample (1 g) DSC

Row | SMILES | molar heat capacity (332.2 K) [J/K/mol] | molar heat capacity (342.1 K) [J/K/mol] | molar heat capacity (354.9 K) [J/K/mol] | molar heat capacity (361.8 K) [J/K/mol] | molar heat capacity (371.6 K) [J/K/mol] | molar heat capacity (381.5 K) [J/K/mol] | molar heat capacity (391.4 K) [J/K/mol] | molar heat capacity (401.3 K) [J/K/mol]
1 | CCc1ccccc1 [ethylbenzene] | 198.7 ± 4 | 202.4 ± 4 | 205.9 ± 4.1 | 210.2 ± 4.2 | 213.6 ± 4.3 | 218 ± 4.4 | 221.7 ± 4.4 | 
2 | CCC(C)c1ccccc1 (stereo unspecified) [(1-methylpropyl)benzene] | 258.5 ± 5.2 | 262.6 ± 5.3 | 267.9 ± 5.4 | 272.5 ± 5.5 | 277.5 ± 5.6 | 282.4 ± 5.6 | 287.3 ± 5.7 | 292.1 ± 5.8
3 | CCCCCCc1ccccc1 [hexylbenzene] | 323.1 ± 6.5 | 328.8 ± 6.6 | 334.1 ± 6.7 | 340.1 ± 6.8 | 347.9 ± 7 | 353.8 ± 7.1 | 359.1 ± 7.2 | 366.1 ± 7.3
4 | CCCCc1ccccc1 [butylbenzene] | 259.1 ± 5.2 | 263 ± 5.3 | 267.8 ± 5.4 | 272.9 ± 5.5 | 277.6 ± 5.6 | 283.9 ± 5.7 | 288 ± 5.8 | 293.9 ± 5.9
5 | Cc1cccc(C)c1 [1,3-dimethylbenzene] | 193.6 ± 3.9 | 197.6 ± 4 | 201.7 ± 4 | 205.7 ± 4.1 | 209.4 ± 4.2 | 213.6 ± 4.3 | 217.4 ± 4.3 | 221.7 ± 4.4
6 | CC(C)c1ccccc1 [isopropylbenzene] | 229.1 ± 4.6 | 234.2 ± 4.7 | 238.5 ± 4.8 | 242.5 ± 4.9 | 246.7 ± 4.9 | 251.1 ± 5 | 255.2 ± 5.1 | 259.5 ± 5.2
7 | CCCc1ccccc1 [propylbenzene] | 227.4 ± 4.5 | 231.4 ± 4.6 | 235.8 ± 4.7 | 240.1 ± 4.8 | 244.6 ± 4.9 | 249.3 ± 5 | 252 ± 5 | 
8 | CC(C)Cc1ccccc1 [(2-methylpropyl)benzene] | 259.1 ± 5.2 | 263.5 ± 5.3 | 268.8 ± 5.4 | 273.9 ± 5.5 | 278.6 ± 5.6 | 283 ± 5.7 | 289.1 ± 5.8 | 293.8 ± 5.9
9 | CC(C)(C)c1ccccc1 [(1,1-dimethylethyl)benzene] | 259 ± 5.2 | 263.1 ± 5.3 | 268.3 ± 5.4 | 272.7 ± 5.5 | 278.4 ± 5.6 | 283 ± 5.7 | 288.8 ± 5.8 | 293.5 ± 5.9
10 | CCCCCCCCCCCCCCCCc1ccccc1 [hexadecylbenzene] | 640 ± 13 | 651.3 ± 13 | 662 ± 13 | 671.9 ± 13 | 683.3 ± 14 | 695.3 ± 14 | 710 ± 14 | 721.1 ± 14
11 | CCCCCCCc1ccccc1 [heptylbenzene] | 353.6 ± 7.1 | 359.6 ± 7.2 | 364.9 ± 7.3 | 371.5 ± 7.4 | 377.2 ± 7.5 | 384.3 ± 7.7 | 389.9 ± 7.8 | 396.5 ± 7.9
